Test results as given in US7531527B2, “2-Propylidene-19-nor-vitamin D compounds” (Wisconsin Alumni Research Foundation, priority 2003, dated 2009).

Legend:
[1] = test system: Male, weanling Sprague-Dawley rats; test: Intestinal calcium transport (everted gut sac method); assay type: in vivo, rat; settings: four consecutive ip doses, FIG. 5
Protocol: (§1) Male, weanling Sprague-Dawley rats were placed on Diet 11 (0.47% Ca) diet+AEK for one week followed by Diet 11 (0.02% Ca)+AEK for 3 weeks. The rats were then switched to a diet containing 0.47% Ca for one week followed by two weeks on a diet containing 0.02% Ca. Dose administration began during the last week on 0.02% calcium diet. Four consecutive ip doses were given approximately 24 hours apart. Twenty-four hours after the last dose, blood was collected from the severed neck and the concentration of serum calcium determined as a measure of bone calcium mobilization. The first 10 cm of the intestine was also collected for intestinal calcium transport analysis using the everted gut sac method.

[2] = test system: Male, weanling Sprague-Dawley rats; test: Bone calcium mobilization (serum calcium); assay type: in vivo, rat; settings: four consecutive ip doses, FIG. 6
Protocol: as §1

[3] = test system: human leukemia cells (HL-60 cells); test: HL-60 cell differentiation (NBT reduction); assay type: cell-based; settings: for potency in promoting the differentiation of leukemia cells: HL-60 cells, compared with 1α,25-dihydroxyvitamin D3 and 2MD, FIG. 3; for percent of HL-60 cells induced to differentiate: NBT assay, concentration 1×10^−7M
Protocol: The differentiation of HL-60 promyelocytic into monocytes was determined as described by Ostrem et al (J. Biol. Chem. 262, 14164-14171, 1987).
Differentiation activity was assessed by a standard differentiation assay, abbreviated as NBT reduction (nitroblue tetrazolium reduction). The assay was conducted according to known procedures, as given, for example, by DeLuca et al U.S. Pat. No. 4,717,721 and Ostrem et al, J. Biol. Chem. 262, 14164, 1987. For the assay, the differentiation activity of the test compounds is expressed in terms of the percent of HL-60 cells having differentiated to normal cells in response to a given concentration of test compound.

[4] = target: T1, recombinantly produced rat receptor (1α,25-hydroxyvitamin D3 rat receptor) (Rattus norvegicus, UniProt P13053); test: Competitive VDR binding; settings: FIGS. 1 and 2
T1 construct: made in house
T1 sequence (P13053 1-423): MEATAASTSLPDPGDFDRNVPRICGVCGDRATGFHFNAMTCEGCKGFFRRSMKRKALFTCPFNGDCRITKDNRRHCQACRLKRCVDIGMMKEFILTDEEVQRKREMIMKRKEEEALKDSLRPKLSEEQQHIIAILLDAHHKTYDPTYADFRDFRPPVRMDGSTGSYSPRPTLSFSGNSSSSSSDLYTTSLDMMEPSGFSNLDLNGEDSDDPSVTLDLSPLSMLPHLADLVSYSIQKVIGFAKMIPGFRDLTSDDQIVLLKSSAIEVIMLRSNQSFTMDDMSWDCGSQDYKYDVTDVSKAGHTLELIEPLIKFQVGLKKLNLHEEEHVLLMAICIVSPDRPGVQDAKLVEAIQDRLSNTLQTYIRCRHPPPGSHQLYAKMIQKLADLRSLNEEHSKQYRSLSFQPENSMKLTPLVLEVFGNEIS
Protocol: Competitive binding of the analogs to the porcine intestinal receptor was carried out by the method described by Dame et al (Biochemistry 25, 4523-4534, 1986), except the recombinantly produced rat receptor was used as the receptor (see Vanhooke et al., Biochemistry, in press, 2004).

[5] = test system: 24-hydroxylase (24OHase) gene promoter; test: Transcription activation, 24-hydroxylase promoter luciferase reporter in ROS 17/2.8 (bone) cells; assay type: cell-based; settings: ROS 17/2.8 cells, 16 hours after dosing, FIG. 4
Protocol: Transcriptional activity was measured in ROS 17/2.8 (bone) cells that were stably transfected with a 24-hydroxylase (24OHase) gene promoter upstream of a luciferase reporter gene (Arbour et al., 1998). Cells were given a range of doses. Sixteen hours after dosing the cells were harvested and luciferase activities were measured using a luminometer.
“RLU” in FIG. 4 refers to relative luciferase units.

Row | Substance | intestinal calcium transport activity [1] | intestinal calcium transport activity compared with 2MD [1] | ability to mobilize calcium from bone [2] | bone calcium mobilization compared with 2MD [2] | potency in promoting the differentiation of leukemia cells [3] | percent of HL-60 cells induced to differentiate [3] | activity in binding to the 1α,25-hydroxyvitamin D3 rat receptor [4] | transcriptional activity in bone cells [5]
1 | 2-(3′-hydroxypropylidene)-19-nor-(20S)-1α,25-(OH)2D3 [1AGS] | relatively high intestinal calcium transport activity | more active than 2MD | significant ability to mobilize calcium from bone | less active in this regard than 2MD | as potent as 1α,25-dihydroxyvitamin D3 and 2MD | the same degree of differentiation | very active | significant transcriptional activity
2 | 2-[(3′-methoxymethoxy)propylidene]-19-nor-1α,25-dihydroxyvitamin D3 [F-Wit] | relatively high intestinal calcium transport activity | more active than 2MD | significant ability to mobilize calcium from bone | less active in this regard than 2MD | – | – | – | significant transcriptional activity
3 | 2-(3′-hydroxypropylidene)-19-nor-1α,25-(OH)2D3 [1AGR] | relatively high intestinal calcium transport activity | more active than 2MD | significant ability to mobilize calcium from bone | less active in this regard than 2MD | as potent as 1α,25-dihydroxyvitamin D3 and 2MD | the same degree of differentiation | very active | significant transcriptional activity
